Results: patent US20240238263A1, “USE OF PYRIDONE DERIVATIVE CONTAINING HETEROATOM CYCLOBUTANE SUBSTITUENT” (GUANGZHOU JOYO PHARMATECH CO., LTD, priority 2021, published 2024)

Test system: dorsal skin full-thickness excisional wound in STZ-induced diabetic rats
Test: Dorsal skin full-thickness excisional wound model in STZ-induced diabetic rats, wound closure
Format: in vivo, Wistar rats
Procedure: In this study, 50 STZ-diabetic rats were used to simulate Type 1 diabetes, with an additional 8 normal rats serving as the control group (normal blank gel control group (without STZ)). The method for modeling the STZ-diabetic rat is as follows: Male Wistar rats were weighed and then intraperitoneally injected with Streptozotocin (STZ, freshly prepared, dissolved in 0.1 M citrate buffer (pH 4.5)) at a dosage of 80 mg/kg. STZ was intraperitoneally injected twice in total, with a 5-day interval between injections. Three days after the second STZ injection, rats with fasting blood glucose levels greater than 250 mg/dl were defined as diabetic model rats. Studies on skin wound healing could be conducted from 1 to 8 weeks after the successful establishment of the diabetic rat model. • 2.
In diabetic model rats, the dorsal skin was marked with a stamp, and full-thickness excision was performed to create a standardized wound area. The day of the full-thickness skin excision surgery was designated as Day 1 of the experiment. The specified surgical procedure was as follows: • 1) Prior to surgery, animals were anesthetized with 2-5% isoflurane. The back was shaved and prepared, and the surgical area was disinfected with iodophor, followed by de-iodination with 75% alcohol. • 2) All animals were marked on the skin of their backs using a stamp with a circular pattern. A circular full-thickness skin excision was performed along the midline of the rat's back, extending down to the fascial layer. […] The surgical site was essentially consistent for each animal; • 3) Post-surgery, every 8-12 hours, 8 mg/kg of bupivacaine (diluted to 0.25% with physiological saline) was injected subcutaneously at the wound site. All animals were closely monitored until they regained consciousness. Animals were monitored daily, and if symptoms of pain persisted, they would continue to receive pain medication. • 4. Drug administration:
All experimental groups were topically administered. Before administering the medication, wounds were rinsed with physiological saline and any residual moisture was absorbed with a sterile cotton swab. Then, the medication was applied. For the GeneTime group, the solution was evenly applied to the wound and surrounding skin, with the dressing changed twice a day. For the other groups, the gel samples were applied from the periphery toward the center, focusing first on the edges of the lesion before covering inward, with the dressing changed twice a day. Medication was applied immediately after the wound model was created, and each group was continuously administered for 18 days. For specific administration information, see Table 2. • 5. Efficacy assessment • 1) Blood glucose monitoring: Blood samples were obtained from all animals via tail vein sampling, and fasting blood glucose levels were measured on days 0/9/18 using a glucometer. • 2) Evaluation of wound closure:
After anesthetizing the rats with isoflurane, a ruler was placed near the wound as a reference scale. Using a digital camera, photos of the wound on the rat's back were taken on days 1, 4, 8, 11, 14, and 18, maintaining a constant focus and pixel condition. The obtained images were processed by software to measure the wound area. • 6. Statistical analysis
Experimental data were expressed as the mean±standard error of the mean (mean±S.E.M.). Statistical analyses were conducted using appropriate methods in software such as Graphpad Prism or SPSS. A p-value of less than 0.05 is considered to indicate a significant difference. • 7. Results • 1) Fasting blood glucose
Remaining Open Wound Area %=Open Wound Area (O)/Initial Wound Area (I)*100%

CC1(c2ccc(=O)n(-c3ccsc3)c2)COC1 [compound I]
Remaining open wound area (0.3% compound I gel, 50 mg topical twice daily, Day 1 (day of surgery)): 100% ±
Remaining open wound area (0.3% compound I gel, 50 mg topical twice daily, Day 4): 94.82% ±
Remaining open wound area (0.3% compound I gel, 50 mg topical twice daily, Day 8): 54% ±
Remaining open wound area (0.3% compound I gel, 50 mg topical twice daily, Day 11): 24.5% ±
Remaining open wound area (0.3% compound I gel, 50 mg topical twice daily, Day 14): 7.75% ±
Remaining open wound area (0.3% compound I gel, 50 mg topical twice daily, Day 18): 1.22% ±
Remaining open wound area (1% compound I gel, topical twice daily, Day 1 (day of surgery)): 100% ±
Remaining open wound area (1% compound I gel, topical twice daily, Day 4): 94.25% ±
Remaining open wound area (1% compound I gel, topical twice daily, Day 8): 55.4% ±
Remaining open wound area (1% compound I gel, topical twice daily, Day 14): 5.47% ±
Remaining open wound area (1% compound I gel, topical twice daily, Day 18): 0.78% ±
Change of remaining open wound area % vs model blank gel control group (1% compound I gel, after 14 days of topical administration, no statistical difference): tended to decrease
Change of remaining open wound area % vs model blank gel control group (1% compound I gel, day 11 after administration, P<0.01): significantly reduced
Remaining open wound area (3% compound I gel, topical twice daily, Day 1 (day of surgery)): 100% ±
Remaining open wound area (3% compound I gel, topical twice daily, Day 4): 93.96% ±
Remaining open wound area (3% compound I gel, topical twice daily, Day 8): 56.92% ±
Remaining open wound area (3% compound I gel, topical twice daily, Day 14): 6% ±
Remaining open wound area (3% compound I gel, topical twice daily, Day 18): 2.01% ±
Change of remaining open wound area % vs model blank gel control group (3% compound I gel, after 14 days of topical administration, no statistical difference): tended to decrease
Change of remaining open wound area % vs model blank gel control group (3% compound I gel, day 11 after administration, P<0.05): significantly reduced
